Values after ≈ are worked out from the molar mass of the structure shown.
Experiments:
[1] = system: Trypanosoma cruzi (Tulahuan-LACZ amstigotes in PEM); assay: In vitro drug activity assay, protozoon A; assay type: cell-based; conditions: amastigotes in murine peritoneal macrophages, 3 days
Protocol: (§1) In vitro activity of selected compounds of the invention against different protozoa was assessed as follows.
Murine (CD1) peritoneal macrophages were harvested 24 hours after starch induction and dispensed into 96-well plates at a concentration of 4×10^5 mL. After 24 hours, the cells were infected with Trypanosoma cruzi Tulahuan LAC-Z amastigotes (grown and cultured according to Buckner et al., Infection and Immunity 1999, 67(1): 403-409). 24 hours later, the infected cells were exposed to the test compounds (compounds of the invention as well as known prior art compounds) for 3 days and 50 μL of 500 μM CPRG-1% Nonidet P-40 was added to each well. The plates were read after 2 to 5 hours at 570 nm (Buckner et al., Antimicrobial Agents and Chemotherapy 1996, 40(11): 2592-2597). ED50 values were calculated with Msxlfit (IDBS).
(§2) The following protozoa were assessed: • A) Trypanosoma cruzi (Tulahuan-LACZ amstigotes in PEM, Lorente S O et al., Antimicrobial agents and chemotherapy 2004, 48(8): 2937-2950; Buckner et al., Infection and Immunity 1999, 67(1): 403-409; Buckner et al., Antimicrobial Agents and Chemotherapy 1996, 40(11): 2592-2597) • B) Trypanosoma brucei rhodesiense (strain STIB900, Lorente S O et al., Antimicrobial agents and chemotherapy 2004, 48(8): 2937-2950; Habtemariam S, BMC Pharmacology 2003, 3:6) • C) Plasmodium falciparum (strain K1, Korsinczky M et al., Antimicrobial agents and chemotherapy 2000, 44(8): 2100-2108; Thaitong S and Beale G H, Trans. R. Soc. Trop. Med. Hyg. 1981, 75: 271-273; Trager W and Jensen J B, Science 1976, 193: 673-675) • D) Plasmodium faiciparum (strain 3D7, Mu et al., PLoS Biology 2005, 3(10): e335)

[2] = system: Plasmodium falciparum (strain K1); assay: In vitro drug activity assay, protozoon C; assay type: cell-based; conditions: strain K1, 3[H]-hypoxanthine method
Protocol: as §1
(§3) Plasmodium falciparum strain K1 and strain 3D7 parasites were cultured according to Trager W and Jensen J B (Science 1976, 193: 673-675). In vitro drug susceptibility assays with the test compounds were carried out according to Korsinczky M et al. (Antimicrobial agents and chemotherapy 2000, 44(8): 2100-2108) and Fivelman Q L et al. (Antimicrobial agents and chemotherapy 2004, 48(11): 4097-4102) using a ^3[H]-hypoxanthine radioisotope method. ED50 values were calculated with Msxlfit (IDBS).
as §2

[3] = system: Plasmodium faiciparum (strain 3D7); assay: In vitro drug activity assay, protozoon D; assay type: cell-based, Plasmodium falciparum; conditions: strain 3D7, 3[H]-hypoxanthine method
Protocol: as §1, §3, §2

[4] = system: Trypanosoma brucei rhodesiense (strain STIB900); assay: In vitro drug activity assay, protozoon B; assay type: cell-based; conditions: bloodstream form trypomastigotes, 72 hours, Alamar Blue
Protocol: as §1
Trypanosoma brucei rhodesiense STIB900 bloodstream form trypomastigotes were maintained in HMI-18 medium (Hirumi H, Hirumi K, J Parasitol. 1989, 75(6):985-989) with 15% heat-inactivated fetal calf serum at 37° C., 5% CO2, humidified atmosphere. Trypomastigotes were washed and resuspended in fresh medium at a concentration of 2×10^5 mL. Test compounds were given to the trypomastigotes and plates were incubated for 72 hours at 37° C., 5% CO2, humidified atmosphere. At 72 hours the plates were assessed microscopically before Alamar Blue was added (Raz et al., Acta Trop. 1997, 68: 139-147). Plates were read after 5 to 6 hours at EX/EM 530/585 nm with a filter cutoff at 550 nm. ED50 values were calculated with Msxlfit (IDBS).
as §2

[5] = system: Candida albicans ATCC 10231; assay: Anti-fungal broth microdilution (MIC), fungus D; assay type: cell-based; conditions: yeast protocol, more than 80% inhibition, 48 h
Protocol: (§4) Anti-fungal activity of selected compounds of the invention was assessed by means of anti-fungal susceptibility tests as follows.
(§5) The antifungal activities of the compounds of the invention against different fungi were measured according to standard broth microdilution methods of the US National Committee for Clinical Laboratory standards (NCCLS) for yeasts (NCCLS document M27-A, 1997) and filamentous fungi (NCCLS document M38-A, 2002).
(§6) Stock solutions of compounds of the invention were freshly prepared on the days of experiments equal to 1.28 mg/10 ml media. Serial dilutions were performed to achieve the following testing concentrations: 64 μg/ml, 32 μg/ml, 16 μg/ml, 8 μg/ml, 4 μg/ml, 2 μg/ml, 1 μg/ml, 0.5 μg/ml, 0.25 μg/ml and 0.125 μg/ml.
(§7) An inoculum of 10^6 CFU/ml of the fungi strain was prepared in the appropriate medium and transferred to test tubes for incubation.
(§8) The method is used to determine the minimum inhibitory concentrations (MIC) of drugs on fungi strains. […] For the filamentous fungi protocol, MIC determination took place after 48 to 72 h of culture at 35° C. and was defined at that concentration which produced more than 50% visible growth inhibition.

[6] = system: Cryptococcus neoformans ATCC 90112; assay: Anti-fungal broth microdilution (MIC), fungus H; assay type: cell-based; conditions: yeast protocol, more than 80% inhibition, 48 h
Protocol: as §4, §5, §6, §7, §8

[7] = system: Aspergillus fumigatus ATCC 204305; assay: Anti-fungal broth microdilution (MIC), fungus A; assay type: cell-based; conditions: Aspergillus fumigatus, ATCC204305; filamentous protocol, more than 50% growth inhibition, 48 to 72 h
Protocol: as §4, §5, §6, §7, §8

[8] = system: Aspergillus fumigatus 322-384; assay: Anti-fungal broth microdilution (MIC), fungus B; assay type: cell-based; conditions: Aspergillus fumigatus, 322384; filamentous protocol, more than 50% growth inhibition, 48 to 72 h
Protocol: as §4, §5, §6, §7, §8

[9] = system: Cryptococcus neoformans H99; assay: Anti-fungal broth microdilution (MIC), fungus I; assay type: cell-based; conditions: yeast protocol, more than 80% inhibition, 48 h
Protocol: as §4, §5, §6, §7, §8

[10] = system: Candida parapsilosis ATCC 22019; assay: Anti-fungal broth microdilution (MIC), fungus G; assay type: cell-based; conditions: yeast protocol, more than 80% inhibition, 48 h
Protocol: as §4, §5, §6, §7, §8

[11] = system: Candida albicans TS3; assay: Anti-fungal broth microdilution (MIC), fungus F; assay type: cell-based; conditions: yeast protocol, more than 80% inhibition, 48 h
Protocol: as §4, §5, §6, §7, §8

[12] = system: Candida albicans ATCC 90028; assay: Anti-fungal broth microdilution (MIC), fungus E; assay type: cell-based; conditions: yeast protocol, more than 80% inhibition, 48 h
Protocol: as §4, §5, §6, §7, §8

[13] = system: Cryptococcus gattii ATCC 32608; assay: Anti-fungal broth microdilution (MIC), fungus J; assay type: cell-based; conditions: yeast protocol, more than 80% inhibition, 48 h
Protocol: as §4, §5, §6, §7, §8

[14] = system: Aspergillus fumigatus 040-200167; assay: Anti-fungal broth microdilution (MIC), fungus C; assay type: cell-based; conditions: Aspergillus fumigatus, 040200167; filamentous protocol, more than 50% growth inhibition, 48 to 72 h
Protocol: as §4, §5, §6, §7, §8

[15] = system: epimastigotes of Trypanosoma cruzi strain Y; assay: In vitro activity of miltefosine and benznidazole against epimastigotes; assay type: cell-based; conditions: 72 h
Protocol: In vitro activity of Miltefosine and Benznidazole in the course of a combination treatment against Trypanosoma cruzi strain Y was assessed compared to the respective single treatments with miltefosine or benznidazole alone.
Miltefosine and Benznidazol were tested in vitro in combination against epimastigote forms of Trypanosoma cruzi strain Y which were isolated from a chagasic patient in Sao Paulo, Brazil and obtained from Dr. Victor Nussenzweig (Silva, L H. and Nussenzweig, V.; Folia clin. biol., 20: 191-207, 1953). This T. cruzi Y strain can also be ordered at ATCC 50832, while the ATCC strain must be re-adapted by several passages through mice in order to regain the strain's original characteristics of differentiation and virulence.
Epimastigotes were axenially cultured in brain heart infusion medium (BHI, Becton, Dickinson, Cat. No. 221812) supplemented with 10 mg of hemin per liter and 5% heat inactivated fetal calf serum (FCS) at 28° C. with shaking (˜80 rpm) up to a maximum of 10-12 passages, before the cultures were aged to obtain metacyclics that were purified on a DE-52 column (Whatman DEAE cellulose ion exchange column, Waco, Cat. No. 17050-03 or 17050-04) and injected into mice. After 2-4 weeks parasites were recovered from blood and placed back into axenic culture.
Stock solutions of Miltefosine and Benznidazol in concentrations of 10 mg/ml and 20 mg/ml dissolved in methanol were used. Stock solutions were serially diluted with a factor of 2 in BHI-FCS medium. For Benznidazol the following testing concentrations were used: 80 μg/ml, 40 μg/ml, 20 μg/ml, 10 μg/ml, 5 μg/ml and 2.5 μg/ml. The testing concentrations for Miltefosine were 20 μg/ml, 10 μg/ml, 5 μg/ml, 2.5 μg/ml, 1.25 μg/ml and 0.625 μg/ml.
2×10^6 epimastigotes were incubated in BHI-FCS medium with Miltefosine and Benznidazol in a final volume of 200 μl. After 72 h incubation at 28° C., parasite growth was determined by direct counting the number of parasites with a Neubauer chamber. The 50% inhibitory concentrations were determined by linear regression analysis.

Row | SMILES | ED50 (μg/mL), protozoon A [1] | ED50 (μg/mL), protozoon C [2] | ED50 (μg/mL), protozoon D [3] | ED50 (μg/mL), protozoon B [4] | MIC [5] | MIC [6] | MIC [7] | MIC [8] | MIC [9] | MIC [10] | MIC [11] | MIC [12] | MIC [13] | MIC [14] | Epimastigotes [amount/mL] ([15]; benznidazole 5 ug/mL) | Epimastigotes [amount/mL] ([15]; benznidazole 10 ug/mL) | Epimastigotes [amount/mL] ([15]; benznidazole 40 ug/mL)
1 | CCCCCCCCCCCCCCCCOP(=O)([O-])OC1CC[N+](C)(CCc2ccccc2)CC1 (stereo not shown) [Compound 4, Phosphoric acid hexadecyl ester 1-methyl-1-phenethyl-piperidin-4-yl ester] | 1.93 µg/mL (≈ 3.69 µM) | 5.44 µg/mL (≈ 10.4 µM) | 15.32 µg/mL (≈ 29.3 µM) | 12.29 µg/mL (≈ 23.5 µM) | – | – | – | – | – | – | – | – | – | – | – | – | –
2 | CCCCCCCCCCCCCCCCCCOP(=O)([O-])OC1CC[N+](CC)(CC)CC1 [Compound 5, Phosphoric acid 1,1-diethyl-piperidin-4-yl ester octadecyl ester] | 1.43 µg/mL (≈ 2.92 µM) | 21.26 µg/mL (≈ 43.4 µM) | 16.31 µg/mL (≈ 33.3 µM) | 14.20 µg/mL (≈ 29 µM) | 2 µg/mL (≈ 4.08 µM) | 1.5 µg/mL (≈ 3.06 µM) | 6 µg/mL (≈ 12.3 µM) | 8 µg/mL (≈ 16.3 µM) | 2 µg/mL (≈ 4.08 µM) | 3 µg/mL (≈ 6.13 µM) | 2 µg/mL (≈ 4.08 µM) | 2 µg/mL (≈ 4.08 µM) | 0.75 µg/mL (≈ 1.53 µM) | 24 µg/mL (≈ 49 µM) | – | – | –
3 | O=C(Cn1ccnc1[N+](=O)[O-])NCc1ccccc1 [benznidazole, N-Benzyl-2-nitroimidazol-1-yl-acetamide] | 0.22 µg/mL (≈ 0.845 µM) | – | – | – | – | – | – | – | – | – | – | – | – | – | 455.833 amount/mL | 358.333 amount/mL | 190.000 amount/mL

From patent US20070167408A1, “NOVEL ALKYL PHOSPHOLIPID DERIVATIVES WITH REDUCED CYTOTOXICITY AND USES THEREOF” (ZENTARIS GmbH, priority 2005, published 2007)
